{"source": "patent US5550128A", "about": "“Enantiomers of gamma methylene 10-deaza aminopterin and process for preparing the same” (priority 1994, dated 1996)", "origin": "cited, not measured here", "key": {"L1210 leukemia": {"tested_on": "L1210 leukemia", "conditions": "animals bearing L1210 leukemia; cited from earlier work"}, "P388 leukemia": {"tested_on": "P388 leukemia", "conditions": "animals bearing P388 leukemia; cited from earlier work"}, "[1]": {"conditions": "animals; relative to MTX; cited from earlier work"}}, "data": [{"smiles": "C=C(CC(NC(=O)c1ccc(C(CC)Cc2cnc3nc(N)nc(N)c3n2)cc1)C(=O)O)C(=O)O", "note": "(stereo not drawn) [MEDAM, γ-methylene-10-ethyl-10-deazaaminopterin]", "values": [{"measurement": "in vivo antitumor activity relative to MTX", "setting": "L1210 leukemia", "result": "superior in vivo antitumor activity relative to the polyglutamylatable MTX"}, {"measurement": "in vivo antitumor activity relative to MTX", "setting": "P388 leukemia", "result": "superior in vivo antitumor activity relative to the polyglutamylatable MTX"}, {"measurement": "tolerability", "setting": "[1]", "result": "tolerated by animals at higher doses"}]}]}
